Measurements: PMC7316895, “Identification of a Compound That Inhibits the Growth of Gram-Negative Bacteria by Blocking BamA–BamD Interaction” (Frontiers in Microbiology, 2020)

Molecular target: T1, BamA (Escherichia coli, UniProt P0A940)
T1 construct: biotinylated for BLI
Test: biolayer interferometry ([…] global fit); supported by GST pull-down showing dose-dependent loss of BamA–BamD interaction
Format: binding

COC(=O)c1c(NC(=O)c2ccc([N+](=O)[O-])o2)sc2c1CCN(C(C)C)C2 [IMB-H4]
Kd: 3.90E^–6
